Experimental data from patent publication US20080318938A1, “METHODS FOR TREATING ABERRANT CELL PROLIFERATION DISORDERS” (priority 2007, published 2008).

How the values were obtained:
Test in all cases: Inhibition of cell proliferation (MTT)
Assay type in all cases: cell-based
[1] = system: UACC-62; details: Homo sapiens; UACC-62, Melanoma; 48 hours
Procedure: (§1) Inhibition of cell proliferation is determined in human tumor cell lines. Innoculation density and doubling times for specific cell lines are listed at World Wide Web URL “dtp.nci.nih.gov/docs/misc/common_files/cell_list.html.”
(§2) • 1. Plate adherent cells the day before starting the experiment in 180 μl growth media (see list hereafter). • 2. Day of experiment, count and plate suspension cells in 180 μl growth media (see list on next page). • 3. Make 10× Compound, vehicle, and chemotherapeutic cocktail • a. Compound (1× to 10×) • i. 10 μM Compound to 100 μM • ii. 3 μM Compound to 30 μM • iii. 1 μM Compound to 10 μM • iv. 0.3 μM Compound to 3 μM • v. 0.1 μM Compound to 1 μM • b. Vehicle • i. PBS, equivalent to the volume used for 10 μM Compound (1× is ˜0.06% PBS) • c. Chemotherapeutic cocktail (1× to 10×): • i. 1 μM Velcade to 10 μM • ii. 100 μM Etoposide to 1 mM • iii. 20 μM Taxol to 200 μM • 4. Add 20 μl of the 10× compound/vehicle/chemotherapeutic cocktail to cells. • 5. Incubate at 37° C., 5% CO2 for 48 hours. • 6. Aspirate media. For suspension cells, spin plate at 1500 RPM for 10 minutes. Use a multichannel pipettor to slowly remove media. • 7. Add 200 μl of Thiazolyl Blue Tetrazolium Bromide (MTT) to each well: 0.863 mg/ml MTT in growth media.
(§3) Proliferation of several cancer cells was inhibited by compound TA1-1B (which is a particular mixture of the isomers represented by TA1-1A), as shown in the following table (Table 1). The value EC50 is the amount of Compound TA1-1B that results in 50% inhibition of proliferation of the indicated cell type.

[2] = system: DOHH2; details: Homo sapiens, DOHH-2; DOHH2, Lymphoma; 48 hours
Procedure: as §1, §2, §3

[3] = system: HH; details: Homo sapiens, Lymphoma, 48 hours
Procedure: as §1, §2, §3

[4] = system: MOLT4; details: Homo sapiens, MOLT-4; MOLT4, Leukemia; 48 hours
Procedure: as §1, §2, §3

[5] = system: NK92MI; details: Homo sapiens, Lymphoma, 48 hours
Procedure: as §1, §2, §3

[6] = system: Jgamma-1; details: Homo sapiens, J.gamma1; Jgamma-1, Leukemia; 48 hours
Procedure: as §1, §2, §3

[7] = system: UACC-257; details: Homo sapiens; UACC-257, Melanoma; 48 hours
Procedure: as §1, §2, §3

[8] = system: Karpas299; details: Homo sapiens, KARPAS-299; Karpas299, Lymphoma; 48 hours
Procedure: as §1, §2, §3

[9] = system: EKVX; details: Homo sapiens, Non Small Cell Lung, 48 hours
Procedure: as §1, §2, §3

[10] = system: HS 578T; details: Homo sapiens, Breast, 48 hours
Procedure: as §1, §2, §3

[11] = system: Kasumi-1; details: Homo sapiens; Kasumi-1, Leukemia; 48 hours
Procedure: as §1, §2, §3

[12] = system: HCT-15; details: Homo sapiens; HCT-15, Colon; 48 hours
Procedure: as §1, §2, §3

[13] = system: MALME-3M; details: Homo sapiens, Melanoma, 48 hours
Procedure: as §1, §2, §3

[14] = system: HL-60(TB); details: Homo sapiens, Leukemia, 48 hours
Procedure: as §1, §2, §3

[15] = system: OVCAR-3; details: Homo sapiens; OVCAR-3, Ovarian; 48 hours
Procedure: as §1, §2, §3

[16] = system: P116; details: Homo sapiens; P116, Leukemia; 48 hours
Procedure: as §1, §2, §3

[17] = system: GDM-1; details: Homo sapiens; GDM-1, Leukemia; 48 hours
Procedure: as §1, §2, §3

[18] = system: Hut78; details: Homo sapiens; Hut78, Lymphoma; 48 hours
Procedure: as §1, §2, §3

[19] = system: JM1; details: Homo sapiens; JM1, Lymphoma; 48 hours
Procedure: as §1, §2, §3

[20] = system: OVCAR-4; details: Homo sapiens; OVCAR-4, Ovarian; 48 hours
Procedure: as §1, §2, §3

[21] = system: COLO 205; details: Homo sapiens; COLO 205, Colon; 48 hours
Procedure: as §1, §2, §3

[22] = system: SN12C; details: Homo sapiens, Renal, 48 hours
Procedure: as §1, §2, §3

[23] = system: Ramos; details: Homo sapiens, Lymphoma, 48 hours
Procedure: as §1, §2, §3

[24] = system: Reh; details: Homo sapiens, Leukemia, 48 hours
Procedure: as §1, §2, §3

[25] = system: MV-4-11; details: Homo sapiens, MV4-11; MV-4-11, Leukemia; 48 hours
Procedure: as §1, §2, §3

[26] = system: OVCAR-5; details: Homo sapiens; OVCAR-5, Ovarian; 48 hours
Procedure: as §1, §2, §3

[27] = system: HT; details: Homo sapiens, Lymphoma, 48 hours
Procedure: as §1, §2, §3

[28] = system: ST486; details: Homo sapiens; ST486, Lymphoma; 48 hours
Procedure: as §1, §2, §3

[29] = system: U251; details: Homo sapiens, U-251; U251, CNS; 48 hours
Procedure: as §1, §2, §3

[30] = system: SUDHL4; details: Homo sapiens, SU-DHL-4; SUDHL4, Lymphoma; 48 hours
Procedure: as §1, §2, §3

[31] = system: A3; details: Homo sapiens; A3, Leukemia; 48 hours
Procedure: as §1, §2, §3

[32] = system: TK-10; details: Homo sapiens; TK-10, Renal; 48 hours
Procedure: as §1, §2, §3

CN1CCC[C@H]1CCNC(=O)c1cn2c3c(c(N4CCC(c5cnccn5)C4)c(F)cc3c1=O)Oc1cc3ccccc3cc1-2 (some centres unmarked) [TA1-1B]
EC50 [1]: 4880 nM | EC50 [2]: 1560 nM | EC50 [3]: 4040 nM | EC50 [4]: 1220 nM | EC50 [5]: 1300 nM | EC50 [6]: 1720 nM | EC50 [7]: 5100 nM | EC50 [8]: 3920 nM | EC50 [9]: 5670 nM | EC50 [10]: 1940 nM | EC50 [11]: 2050 nM | EC50 [12]: 1510 nM | EC50 [13]: 5090 nM | EC50 [14]: 1650 nM | EC50 [15]: 4280 nM | EC50 [16]: 1230 nM | EC50 [17]: 1260 nM | EC50 [18]: 3300 nM | EC50 [19]: 2230 nM | EC50 [20]: 2960 nM | EC50 [21]: 707 nM | EC50 [22]: 4160 nM | EC50 [23]: 1330 nM | EC50 [24]: 1320 nM | EC50 [25]: 5810 nM | EC50 [26]: 2170 nM | EC50 [27]: 2440 nM | EC50 [28]: 1280 nM | EC50 [29]: 2680 nM | EC50 [30]: 1340 nM | EC50 [31]: 3630 nM | EC50 [32]: 3330 nM
